According to ChEMBL document CHEMBL1123385, “Stereoselectivity of a potent calcium antagonist, 1-benzyl-3-pyrrolidinyl methyl 2,6-dimethyl-4-(m-nitrophenyl)-1,4-dihydropyridine-3,5-dicarboxylate” (J Med Chem, 1986):

Key:
Canis familiaris = assay: The compound was tested for coronary vasodilating activity in anesthetized coronary perfused dogs; type: functional, Canis lupus familiaris
[1] = molecular target: Voltage-gated L-type calcium channel (Rattus norvegicus, UniProt P22002+Q02485+P27732); assay: Inhibition of [3H]nitrendipine binding to L-type calcium channel from rat brain cortex homogenate
Rattus norvegicus = species on record: Rattus norvegicus; assay: Hill coefficient of the compound; conditions: in vitro

SMILES	ED100 (Canis familiaris)	Ki [1]	Hill coefficient (Rattus norvegicus)
CO/C(O)=C1\C(C)=NC(C)=C(C(=O)O[C@@H]2CCN(Cc3ccccc3)C2)[C@H]1c1cccc([N+](=O)[O-])c1.Cl	1.6 µg	3.09 nM l-1	0.752
COC(=O)C1=C(C)NC(C)=C(C(=O)OCCN(C)Cc2ccccc2)[C@@H]1c1cccc([N+](=O)[O-])c1		7.11 nM l-1	1.241
COC(=O)C1=C(C)NC(C)=C(C(=O)OCCN(C)Cc2ccccc2)[C@H]1c1cccc([N+](=O)[O-])c1		0.499 nM l-1	1.286
COC(=O)C1=C(C)NC(C)=C(C(=O)OC)C1c1ccccc1[N+](=O)[O-] [NIFEDIPINE]			1.105
CO/C(O)=C1\C(C)=NC(C)=C(C(=O)O[C@H]2CCN(Cc3ccccc3)C2)[C@H]1c1cccc([N+](=O)[O-])c1.Cl	0.57 µg	0.205 nM l-1	1.203
COC(=O)C1=C(C)NC(C)=C(C(=O)OCCN(C)Cc2ccccc2)C1c1cccc([N+](=O)[O-])c1 (racemic) [NICARDIPINE]		0.84 nM l-1	1.054
CO/C(O)=C1\C(C)=NC(C)=C(C(=O)O[C@H]2CCN(Cc3ccccc3)C2)[C@@H]1c1cccc([N+](=O)[O-])c1.Cl (racemic)	9.1 µg	49.6 nM l-1	0.957
CO/C(O)=C1\C(C)=NC(C)=C(C(=O)O[C@@H]2CCN(Cc3ccccc3)C2)[C@@H]1c1cccc([N+](=O)[O-])c1.Cl	3.1 µg	14.3 nM l-1	1.143
